The source of these data is the supplement of paper PMC6723410.

In one experiment the test system is GUMC-403. In words: viability at highest tested concentration (max response) relative to DMSO (% of DMSO control); higher = less cytotoxic. Conditions: library / dose series: MIPE library, 11-point 1:3 dilution; top concentration 1.84 µM; 48 h. The method, boiled down:
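In 1536-well plates, 700 GUMC-403 papilloma cells per well, taken from a patient and grown by conditional reprogramming, were seeded in 5 μL F + Y medium and incubated overnight at 37 °C. Compounds were pinned in at 23 nL in an 11-point 1:3 series, and left for 48 h before CellTiter-Glo luminescence was read on a ViewLux against vehicle (100%) and empty (0%) wells. Reported values are viability at the highest tested concentration relative to vehicle control.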
`CCC(=C/[C@H](C)C/C=C/C(C)=C/[C@@H](C)C(=O)[C@@H](C)[C@H](O)[C@@H](C)C/C(C)=C/C(=O)O)/C=C/[C@@H]1OC(=O)C=C[C@@H]1C` showed a viability of 97.2.

Still in this experiment, the particulars now being: library / dose series: MIPE library, 11-point 1:3 dilution; top concentration 23 µM; 48 h.
On to `CC(C)Cc1ccc(C(C)C(=O)O)cc1` (centres undefined), for which the viability turned out to be 103.

Still in this experiment, the particulars now being: library / dose series: MIPE library, 11-point 1:3 dilution; top concentration 46.1 µM; 48 h.
Compound `CCOC(=O)N1CCN(/[N+]([O-])=N/Oc2ccc([N+](=O)[O-])cc2[N+](=O)[O-])CC1` yielded a viability of 118.

Turning to `O=C(CC12CC3CC(CC(C3)C1)C2)Nc1cccc2nc(NCCNCCO)ccc12`, the viability is 69.8.

`O=C1\C=C/C=C2/[C@H]3CNC[C@H](C3)CN12` yielded a viability of 136.

`CO[C@H]1CCC(O[C@H]2C[C@H]([C@]3(C)CC[C@]4(C[C@H](O)[C@@H](C)[C@@H]([C@@H](C)/C=C(\C)C(=O)[C@H](C)C[C@H](C)C(=O)[O-])O4)O3)O[C@]3(O[C@@H]([C@H]4O[C@@](O)(CO)[C@H](C)C[C@@H]4C)C[C@@H]3C)[C@@H]2C)O[C@@H]1C` (some centres undefined) came in with a viability of 104.

For `CC1(C)CC(=O)c2c(C(F)(F)F)nn(-c3ccc(C(N)=O)c(NC4CCC(OC(=O)CN)CC4)c3)c2C1` (centres undefined), the viability amounted to 84.3.

Consider `CC(C)(Sc1cc(C(C)(C)C)c(O)c(C(C)(C)C)c1)Sc1cc(C(C)(C)C)c(O)c(C(C)(C)C)c1`, for which the viability is 111.

Consider `CC(C)CC(N(C)C)C1(c2ccc(Cl)cc2)CCC1` (centres undefined), for which the viability was 122.

`COc1cc2c(Oc3ccc(NC(=O)C4(C(=O)Nc5ccc(F)cc5)CC4)cc3F)ccnc2cc1OCCCN1CCOCC1` returned a viability of 23.1.

In turn, `ClC1=CC=C(C=C1)C(C#N)C2=C(Cl)C=C(C=C2Cl)N3\N=C/C(=O)NC3=O` (centres undefined) showed a viability of 125.

Consider `CCN1\C=C(\C(O)=O)C(=O)C2=C1C=C(N3CCNCC3)C(=C2)F`, for which the viability was found to be 121.

For `COc1cc(NC(=O)c2ccc(-c3ccc(Cl)cc3)o2)cc(OC)c1`, the viability turned out to be 39.9.

In turn, `CCN1\C=C(C(O)=O)/C(=O)C2=C1C(=C(N3CCNC(C)C3)C(=C2)F)F` (centres undefined) yielded a viability of 126.

The compound `CC(C)(C(=O)NCC(F)(F)C(F)(F)F)C(=O)N[C@@H]1C(=O)Nc2ccccc2-c2ccccc21` displayed a viability of 88.8.

Turning to `O=NN(CCCl)C(=O)NCCCl`, the viability was determined as 131.

Take `O=C(CS(=O)Cc1ccco1)NC/C=C\COc1cc(CN2CCCCC2)ccn1` (centres undefined): the viability worked out at 128.

Turning to `CN1C(=O)CCS(=O)(=O)C1c1ccc(Cl)cc1` (centres undefined), the viability was determined as 104.

Take `Cn1c(=O)c2[nH]cnc2n(C)c1=O`: the viability came to 120.

`C=C(C)[C@@H]1CC[C@]2(C)CC[C@]3(C)[C@H](CC[C@@H]4[C@@]5(C)CC[C@H](O)C(C)(C)[C@@H]5CC[C@]43C)[C@@H]12` displayed a viability of 135.

Consider `CN(C(=O)c1ccc(F)cc1C(F)(F)F)C1CCN(c2nnc(-c3ccnn3C)c3ccccc23)CC1`, for which the viability came out at 78.1.

In the case of `OC1=CC2=C(C(=O)\C=C(/O2)C3=CC=CC=C3)C(=C1O)O`, the viability is 114.

As to `CC[C@]12CC[C@H]3[C@@H](CCC/4=C/C(=O)CC[C@H]34)[C@@H]1\C=C/[C@@]2(O)C#C`, the viability amounted to 130.

In turn, `CC(=O)NC(C)c1ccc(Oc2ccc(OC(C)C)cc2)cc1` (centres undefined) gave a viability of 121.

`NC\1=N\C(=O)N(\C=N1)[C@H]2C[C@H](O)[C@@H](CO)O2` had a viability of 105.

In turn, `CN(CC(=O)N(Cc1ccc(C2CCCCC2)cc1)c1ccc(C(=O)O)c(O)c1)[S+](=O)([O-])c1c(F)c(F)c(F)c(F)c1F` had a viability of 112.

In the case of `COc1ccc2c(c1)c(CC(=O)OCC(=O)O)c(C)n2C(=O)c1ccc(Cl)cc1`, the viability turned out to be 90.3.

On to `CC(C)(C)C1=CC(=C(NC(=O)C/2=C/NC3=C(C=CC=C3)C2=O)C=C1O)C(C)(C)C`, for which the viability was determined as 114.

`CN(C)CC[C@H](CSc1ccccc1)Nc1ccc([S+](=O)([O-])NC(=O)c2ccc(N3CCN(Cc4ccccc4-c4ccc(Cl)cc4)CC3)cc2)cc1[N+](=O)[O-]`: the viability came out at 114.

Turning to `COc1cc(CCc2cc(NC(=O)c3ccc(N4C[C@@H](C)N[C@@H](C)C4)cc3)n[nH]2)cc(OC)c1`, the viability stood at 81.8.

As to `O=C(N[C@H]1CN2CCC1CC2)c1ccc(Cl)cc1`, the viability came out at 121.

In the case of `Cn1cnc2c1c(=O)[nH]c(=O)n2C`, the viability came out at 127.

In turn, `COc1ccccc1[C@H](c1cccc2ccccc12)[C@@](C)(C#N)C(=O)N1CCC(c2cccc(C(F)(F)F)c2)CC1` had a viability of 86.3.

In turn, `COc1cc2c(cc1OC)[C@@H]1Cc3ccc(OC)c(OC)c3CN1CC2` had a viability of 115.

`OCCNC1CCCc2c1[nH]c1ccc(-c3ccccc3)cc21` (centres undefined) yielded a viability of 107.

On to `COC1=CC=C(C=C1O)C/2=C/C(=O)C3=C(O2)C=C(O[C@@H]4O[C@H](CO[C@@H]5O[C@@H](C)[C@H](O)[C@@H](O)[C@H]5O)[C@@H](O)[C@H](O)[C@H]4O)C=C3O`, for which the viability came out at 117.

In the case of `CCC(=O)OCC(=O)[C@@]1(OC(=O)CC)[C@@H](C)C[C@H]2[C@@H]3CCC4=CC(=O)C=C[C@]4(C)[C@@]3(F)[C@@H](O)C[C@@]21C`, the viability came out at 120.

For `CCOc1ccccc1N/N=C1/C(=O)N(c2nc(-c3ccccc3)cs2)N=C1C`, the viability stood at 115.

Regarding `Cc1ccc(NC(=O)Nc2cc(C(F)(F)F)ccc2F)cc1Nc1ccc2c(c1)NC(=O)/C2=C\c1ccc[nH]1`, the viability is 99.8.

Consider `Cc1c(C(=O)NN2CCCCC2)nn(-c2ccc(Cl)cc2Cl)c1-c1ccc(Cl)cc1`, for which the viability stood at 109.

Consider `CCc1c(C(=O)C(N)=O)c2c(OCC(=O)O)cccc2n1Cc1ccccc1`, for which the viability came out at 103.

Take `CC[C@H]1OC(=O)[C@H](C)[C@@H](O[C@H]2C[C@@](C)(OC)[C@@H](O)[C@H](C)O2)[C@H](C)[C@@H](O[C@@H]2O[C@@H](C)C[C@H](N(C)C)[C@H]2O)[C@](C)(O)C[C@@H](C)C(=O)[C@H](C)[C@@H](O)[C@]1(C)O`: the viability stood at 116.

As for `CC1(C)[C@H](C(=O)O)N2C(=O)C[C@H]2[S+]1(=O)[O-]`, the viability came to 106.

Compound `N[C@@H](CC(=O)N1CCn2c(nnc2C(F)(F)F)C1)Cc1cc(F)c(F)cc1F` returned a viability of 97.9.

For the compound `CN1\C(=C(\O)C2=C(C=CS2)[S+]1([O-])=O)C(=O)NC3=CC=CC=N3`, the viability is 126.

Take `COC(=O)Nc1nc2cc(C(=O)c3ccccc3)ccc2[nH]1`: the viability came to 88.2.

Turning to `CCc1ccc(/C=C2/SC(=S)NC2=O)cc1`, the viability turned out to be 106.

With `CN(C)CCCC1(c2ccc(F)cc2)OCc2cc(C#N)ccc21` (centres undefined), the viability stood at 98.5.

In turn, `CC(C)(C)OC(=O)Nc1ccc(-c2cc(C(=O)NCCCCCCC(=O)NO)no2)cc1` registered a viability of 81.6.

For `OCCn1cc(-c2ccc3c(c2)CC/C3=N\O)c(-c2ccncc2)n1`, the viability came to 94.5.

As for `N[C@H](CSC(c1ccccc1)(c1ccccc1)c1ccccc1)C(=O)O`, the viability is 103.

For the compound `OC1=CC=C(C=C1)\C2=C\OC3=C(C=CC(=C3)O)C2=O`, the viability was 133.

In the case of `O=C(NCC[S+](=O)([O-])c1ccc(C(F)(F)F)cn1)c1ccc(Cl)cc1`, the viability worked out at 107.

Staying with this experiment, now noted: library / dose series: MIPE library, 11-point 1:3 dilution; top concentration 92.2 µM; 48 h.
Consider `CC(C)(Oc1ccc(C2CC2(Cl)Cl)cc1)C(=O)O` (centres undefined), for which the viability was determined as 101.
